Literature values as cited in patent US12138347B2, “Nanoparticles and nanonetworks formed therefrom” (University of Houston System, priority 2018, dated 2024).

Columns and labels:
K562 leukemia cells = conditions: p53 null cell line
HL60 leukemia cells = conditions: p53 null cell line
[1] = tested on: HT-29 colon carcinoma cells; conditions: p53 null cell line

With `C[C@H]1CCC/C=C/[C@@H]2C[C@H](O)C[C@H]2[C@H](O)/C=C/C(=O)O1` [BFA, Brefeldin A] as the compound, how does the “effect on efficacy of docetaxel” value (prostate cancer cells) read?
The value was “enhances the efficacy”.

And the “potency in K562 leukemia cells” value (K562 leukemia cells)?
The value was “high potency”.

What about the “potency in HL60 leukemia cells” value (HL60 leukemia cells) of the same compound?
Its value is “high potency”.

What about the “potency in HT-29 colon carcinoma cells” value [1] of the same compound?
Its value is “high potency”.
